Laboratory results from the supplement of paper PMC11061612.

Key:
Assay in all cases: Bliss excess, mean over the matrix (fraction); higher = more synergy
EW-24 (Ewing's Sarcoma) = test system: EW-24 (Ewing's Sarcoma)
How it was run: (§1)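 After 24 hours at 37°C and 5% CO2 in 1536-well plates, cells in DMEM/F12 or RPMI plus 10% FBS received two-drug dose matrices for 72 hours. Viability came from CellTiter-Glo 2.0 luminescence and was scaled as inhibition, anchored at 0 by vehicle wells and at 1 by blank wells. Combination Emax is taken as the second-highest inhibition in the matrix, and Bliss excess as the observed combination effect less EA + EB − EA·EB, with EA and EB the single-agent effects.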

TK10 (Kidney Carcinoma) = test system: TK10 (Kidney Carcinoma)
How it was run: as §1

[1] = test system: MLMA (Other Blood Carcinomas)
How it was run: as §1

[2] = test system: KYSE-450 (Esophageal Squamous Cell Carcinoma)
How it was run: as §1

D-263MG (Glioblastoma) = test system: D-263MG (Glioblastoma)
How it was run: as §1

[3] = test system: MIA-PaCa-2 (Pancreatic Carcinoma)
How it was run: as §1

[4] = test system: NCI-H727 (Other Solid Carcinomas)
How it was run: as §1

[5] = test system: Caov-4 (Ovarian Carcinoma)
How it was run: as §1

[6] = test system: EoL-1-cell (Acute Myeloid Leukemia)
How it was run: as §1

NB69 (Neuroblastoma) = test system: NB69 (Neuroblastoma)
How it was run: as §1

[7] = test system: Ca9-22 (Head and Neck Carcinoma)
How it was run: as §1

TGW (Neuroblastoma) = test system: TGW (Neuroblastoma)
How it was run: as §1

[8] = test system: EFM-19 (Breast Carcinoma)
How it was run: as §1

[9] = test system: Hs-766T (Pancreatic Carcinoma)
How it was run: as §1

Row | Compound | Bliss excess (EW-24 (Ewing's Sarcoma)) | Bliss excess (TK10 (Kidney Carcinoma)) | Bliss excess [1] | Bliss excess [2] | Bliss excess (D-263MG (Glioblastoma)) | Bliss excess [3] | Bliss excess [4] | Bliss excess [5] | Bliss excess [6] | Bliss excess (NB69 (Neuroblastoma)) | Bliss excess [7] | Bliss excess (TGW (Neuroblastoma)) | Bliss excess [8] | Bliss excess [9]
1 | O=C(c1cc(Cc2n[nH]c(=O)c3ccccc23)ccc1F)N1CCN(C(=O)C2CC2)CC1 [Olaparib] + COc1nnc2ccc(N3CCC(c4ccc(OCCN5CCN(C)C(=O)[C@H]5C)cc4)CC3)nn12 [AZD5153] (first compound max 10 µM, 7x7, partner max 1 µM) | -0.0469 | -0.0301 | -0.0697 | -0.0606 | -0.057 | -0.0233 | -0.0452 | -0.0634 | -0.0384 | 0.0035 | -0.0495 | -0.054 | 0.0112 | -0.0857
2 | C=CCn1c(=O)c2cnc(Nc3ccc(N4CCN(C)CC4)cc3)nc2n1-c1cccc(C(C)(C)O)n1 [AZD1775] + CCc1c2c(nc3ccc(O)cc13)-c1cc3c(c(=O)n1C2)COC(=O)[C@]3(O)CC [SN-38] (first compound max 1 µM, partner max 0.3 µM) | -0.113 | -0.0717 | -0.0639 | 0.0358 | 0.0132 | 0.0699 | -0.0018 | -0.0557 | 0.0324 | 0.0239 | 0.0045 | -0.0592 | -0.0175 | 0.0017
3 | Cc1c2c(nn1C)CSCc1cc(n(C)n1)CSc1cc(c3ccccc3c1)OCCCc1c(C(=O)O)n(C)c3c-2c(Cl)ccc13 [AZD5991] + CC(=O)O[C@H]1C(=O)[C@@]2(C)[C@H]([C@H](OC(=O)c3ccccc3)[C@]3(O)C[C@H](OC(=O)[C@H](O)[C@@H](NC(=O)c4ccccc4)c4ccccc4)C(C)=C1C3(C)C)[C@]1(OC(C)=O)CO[C@@H]1C[C@@H]2O [Paclitaxel] (first compound max 1 µM, 7x7, partner max 3 µM) | 0.0289 | -0.0402 | -0.0803 | 0.0363 | 0.206 |  | -0.025 | 0.0995 | -0.0041 | 0.027 | 0.0065 | -0.0235 | 0.0948 | -0.0539
4 | O=C(c1cc(Cc2n[nH]c(=O)c3ccccc23)ccc1F)N1CCN(C(=O)C2CC2)CC1 [Olaparib] + Cc1c2c(nn1C)CSCc1cc(n(C)n1)CSc1cc(c3ccccc3c1)OCCCc1c(C(=O)O)n(C)c3c-2c(Cl)ccc13 [AZD5991] (first compound max 10 µM, 7x7, partner max 1 µM) | -0.0215 | -0.0699 | -0.0744 | -0.0409 | -0.0401 | -0.0205 | -0.0269 | -0.0215 | 0.0236 | -0.0042 | 0.0247 | -0.032 | 0.0102 | -0.0818
5 | O=C(c1cc(Cc2n[nH]c(=O)c3ccccc23)ccc1F)N1CCN(C(=O)C2CC2)CC1 [Olaparib] + CN(CC[C@H](CSC1=CC=CC=C1)NC2=C(C=C(C=C2)S(=O)(=O)NC(=O)C3=CC=C(C=C3)N4CCC(CC4)[C@H](C5=CC=CC=C5C6=CC=C(C=C6)Cl)O)S(=O)(=O)C(F)(F)F)CCO [AZD4320] (first compound max 10 µM, 7x7, partner max 1 µM) | 0.0097 | -0.0439 | -0.0619 | -0.0434 | -0.0672 | 0.002 | -0.052 | -0.0392 | 0.0717 | 0.0663 | 0.006 | -0.0479 | -0.015 | -0.0976
6 | O=C(c1cc(Cc2n[nH]c(=O)c3ccccc23)ccc1F)N1CCN(C(=O)C2CC2)CC1 [Olaparib] + CC1(C)CCC(CN2CCN(c3ccc(C(=O)NS(=O)(=O)c4ccc(NCC5CCOCC5)c([N+](=O)[O-])c4)c(Oc4cnc5[nH]ccc5c4)c3)CC2)=C(c2ccc(Cl)cc2)C1 [Venetoclax] (first compound max 10 µM, 7x7, partner max 1 µM) | -0.0087 | -0.0727 | -0.0299 | -0.0499 | -0.0659 | -0.0208 | -0.0383 | -0.032 | 0.0698 | 0.067 | 0.0323 | -0.0225 | 0.0138 | -0.0885
7 | C[C@@H](Oc1cc(-c2cnn(C3CCNCC3)c2)cnc1N)c1c(Cl)ccc(F)c1Cl [Crizotinib] + Cn1cnc2c(F)c(Nc3ccc(Br)cc3Cl)c(C(=O)NOCCO)cc21 [Selumetinib] (first compound max 10 µM, 7x7, partner max 10 µM) | -0.0464 | -0.0705 | -0.116 | -0.0241 | -0.0866 | 0.0058 | -0.0226 | -0.025 | 0.0352 | -0.0283 | -0.0286 | -0.0252 | -0.0327 | -0.0074
8 | CS(=O)(=O)CCNCc1ccc(-c2ccc3ncnc(Nc4ccc(OCc5cccc(F)c5)c(Cl)c4)c3c2)o1 [Lapatinib] + NC1(c2ccc(-c3nc4ccn5c(=O)[nH]nc5c4cc3-c3ccccc3)cc2)CCC1 [MK-2206] (first compound max 10 µM, 7x7, partner max 10 µM) | 0.0118 | 0.0616 | -0.093 | -0.022 | -0.0222 | 0.0112 | 0.0172 | -0.05 | 0.0098 | 0.0688 | 0.005 | -0.0033 | 0.0455 | -0.0629
9 | Cc1c2c(nn1C)CSCc1cc(n(C)n1)CSc1cc(c3ccccc3c1)OCCCc1c(C(=O)O)n(C)c3c-2c(Cl)ccc13 [AZD5991] + CS(=O)(=O)CCNCc1ccc(-c2ccc3ncnc(Nc4ccc(OCc5cccc(F)c5)c(Cl)c4)c3c2)o1 [Lapatinib] (first compound max 1 µM, 7x7, partner max 10 µM) |  | -0.0567 | -0.0474 | -0.0108 | -0.0735 | -0.0094 | -0.0013 | 0.0835 |  | 0.021 | 0.0614 | -0.0015 | -0.0035 | -0.0526
10 | C[C@@H](Nc1cc(F)cc(F)c1)c1cc(C(=O)N(C)C)cc2c(=O)cc(N3CCOCC3)oc12 [AZD8186] + C1CN(CCC1(C(=O)N[C@@H](CCO)C2=CC=C(C=C2)Cl)N)C3=NC=NC4=C3C=CN4 [AZD5363] (first compound max 10 µM, 7x7, partner max 10 µM) | -0.0033 | -0.0661 | -0.0797 | 0.0035 | -0.0348 | 0.0056 | -0.0149 | -0.0338 | 0 | 0.0248 | -0.0508 | -0.0683 | -0.0075 | -0.0078
11 | C[C@@H]1COCCN1c1cc(C2([S@](C)(=N)=O)CC2)nc(-c2ccnc3[nH]ccc23)n1 [AZD6738] + Nc1ccn([C@@H]2O[C@H](CO)[C@@H](O)C2(F)F)c(=O)n1 [Gemcitabine] (first compound max 10 µM, 7x7, partner max 0.3 µM) | 0.0086 | -0.0417 | -0.0777 | 0.104 | 0.102 | 0.0999 | 0.0121 | 0.0431 | -0.081 | 0.0147 | 0.0536 | 0.0013 | 0.127 | -0.0278
12 | Cc1c2c(nn1C)CSCc1cc(n(C)n1)CSc1cc(c3ccccc3c1)OCCCc1c(C(=O)O)n(C)c3c-2c(Cl)ccc13 [AZD5991] + Nc1ccn([C@@H]2O[C@H](CO)[C@@H](O)C2(F)F)c(=O)n1 [Gemcitabine] (first compound max 1 µM, 7x7, partner max 0.3 µM) | 0.0048 | -0.0198 | -0.0451 | -0.0267 | 0.08 | 0.0137 | -0.0394 | -0.0312 | -0.0123 | 0.0037 | 0.0042 | 0.007 | 0.0744 | -0.0234
13 | Cc1nc(-c2cn3c(n2)-c2ccc(-c4cnn(C(C)(C)C(N)=O)c4)cc2OCC3)n(C(C)C)n1 [Taselisib] + O=C(Nc1ccc2[nH]nc(-c3ccncc3)c2c1)[C@@H]1CCN(CC(=O)N2CCN(c3ccc(-c4ncccn4)cc3)CC2)C1 [SCH772984] (first compound max 10 µM, 7x7, partner max 5 µM) | 0.0424 | -0.008 | 0.0548 | 0.0365 | 0.0047 | 0.149 | 0.0252 | 0.0269 | 0.191 | -0.0509 | 0.116 | 0.033 | 0.0524 | -0.0386
14 | CS(=O)(=O)CCNCc1ccc(-c2ccc3ncnc(Nc4ccc(OCc5cccc(F)c5)c(Cl)c4)c3c2)o1 [Lapatinib] + Cn1cnc2c(F)c(Nc3ccc(Br)cc3Cl)c(C(=O)NOCCO)cc21 [Selumetinib] (first compound max 10 µM, 7x7, partner max 10 µM) | -0.0473 | -0.008 | 0.0059 | -0.016 | -0.0859 | 0.0484 | 0.0299 | 0.0493 | -0.038 | -0.0397 | 0.0498 | -0.079 | -0.0395 | -0.0652
15 | C=CCn1c(=O)c2cnc(Nc3ccc(N4CCN(C)CC4)cc3)nc2n1-c1cccc(C(C)(C)O)n1 [AZD1775] + Nc1ccn([C@@H]2O[C@H](CO)[C@@H](O)C2(F)F)c(=O)n1 [Gemcitabine] (first compound max 1 µM, partner max 0.3 µM) | -0.0627 | -0.0299 | -0.0797 | 0.0717 | 0.0297 | 0.0459 | -0.0278 | 0 | 0.0391 | 0.0419 | 0.0821 | -0.0355 | 0.0061 | -0.0742
16 | C[C@@H]1COCCN1c1cc(C2([S@](C)(=N)=O)CC2)nc(-c2ccnc3[nH]ccc23)n1 [AZD6738] + C1CC(C1)(C(=O)[O-])C(=O)[O-].N.N.[Pt+2] [Carboplatin] (first compound max 10 µM, 7x7, partner max 10 µM) | -0.0462 | -0.0837 | -0.102 | -0.0386 | -0.0417 | -0.0272 | -0.0445 | -0.0209 | -0.0132 | -0.0502 | -0.0479 | -0.0765 | -0.0328 | -0.0536
17 | C[C@@H](Nc1cc(F)cc(F)c1)c1cc(C(=O)N(C)C)cc2c(=O)cc(N3CCOCC3)oc12 [AZD8186] + CC(=O)c1c(C)c2cnc(Nc3ccc(N4CCNCC4)cn3)nc2n(C2CCCC2)c1=O [Palbociclib] (first compound max 10 µM, 7x7, partner max 10 µM) | 0.0598 | -0.0069 | 0.0443 | -0.0404 | 0.0181 | 0.0485 | 0.0923 | 0.0078 | 0.0996 | -0.0111 | 0.021 | -0.0397 | -0.0026 | 0.006
18 | C[C@@H](Oc1cc(-c2cnn(C3CCNCC3)c2)cnc1N)c1c(Cl)ccc(F)c1Cl [Crizotinib] + CC1=C(C(=CC=C1)Cl)NC(=O)C2=CN=C(S2)NC3=CC(=NC(=N3)C)N4CCN(CC4)CCO [Dasatinib] (first compound max 10 µM, 7x7, partner max 2 µM) | -0.0154 | 0.0333 | -0.0411 | 0.0276 | 0.0932 | 0.0119 | -0.0009 | -0.0441 | 0.0101 | 0.0051 | 0.0635 | -0.0593 | 0.0874 | -0.074
